For this test, the target named is Cyclin E1 (Homo sapiens, UniProt P24864+Q96SW2). The test is described as follows: Cyclin E1 Cellular Degradation Assay (MSD). The format is cell-based. Set-up: endogenous in cells; host or cells: OVCAR3. In outline: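 Cyclin E1 remaining after 24 h compound exposure of OVCAR3 cells was quantified in lysates by electrochemiluminescent MSD sandwich assay. DC50 (50% response concentration) and Dmax (maximum response) were calculated, with 110% response set by a reference compound at […].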
Chain of Cyclin E1 (P24864 whole entry): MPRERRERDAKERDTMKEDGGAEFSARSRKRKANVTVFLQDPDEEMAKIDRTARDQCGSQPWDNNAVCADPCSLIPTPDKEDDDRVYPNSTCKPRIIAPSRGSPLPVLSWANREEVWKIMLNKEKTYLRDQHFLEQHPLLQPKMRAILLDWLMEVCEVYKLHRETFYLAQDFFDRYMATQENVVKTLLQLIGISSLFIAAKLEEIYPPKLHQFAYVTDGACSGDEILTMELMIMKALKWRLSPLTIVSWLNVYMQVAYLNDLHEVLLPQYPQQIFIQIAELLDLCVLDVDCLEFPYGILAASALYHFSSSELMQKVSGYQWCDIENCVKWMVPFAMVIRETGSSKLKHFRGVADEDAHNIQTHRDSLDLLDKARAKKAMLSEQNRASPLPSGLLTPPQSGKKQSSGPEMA
Chain of Cyclin E1 (Q96SW2 whole entry): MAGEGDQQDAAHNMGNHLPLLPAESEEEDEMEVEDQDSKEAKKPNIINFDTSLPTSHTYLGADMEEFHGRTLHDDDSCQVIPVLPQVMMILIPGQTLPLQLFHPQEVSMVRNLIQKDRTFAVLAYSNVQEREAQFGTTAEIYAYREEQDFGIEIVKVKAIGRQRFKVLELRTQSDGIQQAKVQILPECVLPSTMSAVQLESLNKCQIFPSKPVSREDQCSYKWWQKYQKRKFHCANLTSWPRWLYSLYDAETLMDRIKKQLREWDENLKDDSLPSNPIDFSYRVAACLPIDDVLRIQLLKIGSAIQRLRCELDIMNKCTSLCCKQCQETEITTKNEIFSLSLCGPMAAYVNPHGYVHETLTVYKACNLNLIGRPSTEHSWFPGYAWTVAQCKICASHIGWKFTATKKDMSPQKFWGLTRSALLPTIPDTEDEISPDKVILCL
Chain of Cyclin E1 (Q16531 whole entry partner): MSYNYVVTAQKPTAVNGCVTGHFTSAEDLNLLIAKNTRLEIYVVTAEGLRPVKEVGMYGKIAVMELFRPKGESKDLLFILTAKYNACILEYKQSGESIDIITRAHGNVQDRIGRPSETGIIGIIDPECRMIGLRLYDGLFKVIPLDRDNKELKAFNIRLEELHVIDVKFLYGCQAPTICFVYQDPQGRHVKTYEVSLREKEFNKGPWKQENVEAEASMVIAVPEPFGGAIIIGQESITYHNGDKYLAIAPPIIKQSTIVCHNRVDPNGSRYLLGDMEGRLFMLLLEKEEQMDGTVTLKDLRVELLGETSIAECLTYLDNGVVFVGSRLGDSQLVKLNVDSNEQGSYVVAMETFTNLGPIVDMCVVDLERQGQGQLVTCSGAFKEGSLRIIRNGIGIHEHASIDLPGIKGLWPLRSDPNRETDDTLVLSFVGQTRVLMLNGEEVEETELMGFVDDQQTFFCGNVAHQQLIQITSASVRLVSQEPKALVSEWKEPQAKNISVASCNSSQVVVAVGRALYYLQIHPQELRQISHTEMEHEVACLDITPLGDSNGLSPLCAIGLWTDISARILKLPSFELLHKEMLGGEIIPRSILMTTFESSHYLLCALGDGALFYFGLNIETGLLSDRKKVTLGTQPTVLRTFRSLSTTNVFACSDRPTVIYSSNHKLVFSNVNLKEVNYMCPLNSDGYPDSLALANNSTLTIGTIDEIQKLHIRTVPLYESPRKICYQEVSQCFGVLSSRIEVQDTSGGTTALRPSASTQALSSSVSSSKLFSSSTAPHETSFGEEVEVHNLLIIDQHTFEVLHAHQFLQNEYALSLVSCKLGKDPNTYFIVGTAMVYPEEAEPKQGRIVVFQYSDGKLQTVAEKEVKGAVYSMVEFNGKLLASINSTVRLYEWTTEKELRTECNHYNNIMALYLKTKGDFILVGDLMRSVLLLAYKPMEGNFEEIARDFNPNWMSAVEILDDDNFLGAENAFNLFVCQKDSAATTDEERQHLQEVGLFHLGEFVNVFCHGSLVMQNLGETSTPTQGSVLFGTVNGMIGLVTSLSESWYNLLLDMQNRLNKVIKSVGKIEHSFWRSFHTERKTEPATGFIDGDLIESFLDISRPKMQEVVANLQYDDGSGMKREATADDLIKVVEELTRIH

SMILES strings stand for the structures.

The DC50 is the midpoint of the concentration-degradation curve. Read a high DC50 as degradation only at high concentration. As usually defined, the Dmax is the greatest extent of degradation seen. Compound `COc1c(COC(=O)Nc2ccc(Oc3ccc(F)c(F)c3)cc2)ccc2c1C(=O)N([C@H]1CCC(=O)NC1=O)C2` (single isomer, unassigned) [Example 35, {2-[(3 S)-2,6-dioxopiperidin-3-yl]-4-methoxy-3-oxo-2,3-dihydro-1H-isoindol-5-yl}methyl N-[4-(3,4-difluorophenoxy)phenyl]carbamate] returned a DC50 (Cyclin E1 cellular degradation) of 159 nM. The Dmax (Cyclin E1 cellular degradation, maximum degradation) was 107%. For the same compound, for the setting “selectivity for degradation of Cyclin E1 over GSPT1”, the “Ratio of GSPT1 DC50/Cyclin E1 DC50” value is listed as above 88.

For the origin of these results see patent US20250084056A1, “SUBSTITUTED OXOISOINDOLINYL PIPERIDINE-2,6-DIONE COMPOUNDS” (BRISTOL-MYERS SQUIBB COMPANY, priority 2023, published 2025).
